Source: patent US20260306463A1, “SIK INHIBITORS TO TREAT CHRONIC KIDNEY DISEASE” (The General Hospital Corporation, priority 2023, published 2026)

System: renal fibrosis, adenine-induced CKD mice
Test: renal fibrosis in adenine CKD mice (trichrome, immunoblot, RT-qPCR)
Format: in vivo, mouse
Experimental: FIGS. 3A-3C. SK-124 treatment reduces fibrosis in adenine-induced chronic kidney disease. (A) Representative trichrome stained sections from the indicated groups. Darker staining indicates fibrosis which is increased in vehicle-treated adenine diet mice and reduced by SK-124 treatment. (B) Kidney protein lysates were isolated and analyzed by immunoblotting for alpha-smooth muscle actin (αSMA) (top) and GAPDH (bottom). (C) Whole kidney RNA from the indicated groups was analyzed by RT-qPCR for the indicated fibrosis marker.
7-week-old female CD1 mice were obtained from Charles River Laboratories (Wilmington, MA) and were fed on 0.2% adenine containing diet (TD.130900; 0.2% Adenine, 0.9% Phosphate, 0.5% Calcium; Envigo) or control diet (TD. 96348) for 6 or 8 weeks to induce chronic kidney disease (CKD). Mice were oral gavaged with 40 mg/kg SK-124, or intraperitonially injected with 80 μg/kg PTH, or treated with vehicle 5 days a week for the duration of the special diet.
cDNA was prepared using Primescript RT kit (Takara Inc), with 750 ng RNA per reaction. RT-qPCR was performed by using PerfeCa® SYBR® Green FAstMix® ROX (Quanta bio) in the StepOnePlus™ Real-time PCR System (Applied Biosystems). Hmbs was used as a control housekeeping gene for mouse samples, and B-Actin was used for organoids, relative expression was calculated (2^-deltaCT method) and compared to the mean of control group if necessary. Primers used for RT-qPCR are listed in Table 2 (mouse primers) and Table 3 (human primers).
Snap-frozen kidneys were homogenized in NP-40 lysis buffer (FNN0021, Thermo) with using TissueLyserII at 30 Hz for 5 minutes. Samples were rotated at 4 deg for 20 minutes and frozen on dry ice and thawed. After centrifuging for 30 minutes at 4 deg, the supernatants were collected. After determining the protein concentration by Bradford assay, […] of protein was loaded for western blotting. For KGli cells, the cells were washed with cold PBS then scraped into TNT buffer (Tris-NaCl-Tween buffer, 20 mM Tris-HCl pH 8, 200 mM NaCl, 0.5% Triton X-100 containing 1X-protease inhibitor cocktail (Bimake Inc. 100X, Cat. #B14001), 1 mM DTT, 1 mM NaF, 1 mM Vanadate (New England Biolabs)). Next, samples were vortexed for 1 minute and centrifuged at 14,000g for 6 minutes at 4 deg, and the supernatant was collected.
For immunoblotting, the lysates were separated by SDS-PAGE (Bio-rad precast gels), and proteins were transferred to the nitrocellulose membranes. Then, the membranes were blocked in 5% milk in tris-buffered saline plus 0.05% Tween-20 (TBST) and incubated with primary antibody in 5% BSA-TBST overnight at 4° C. Next day, after washing, membranes were incubated with anti-rabbit HRP-coupled secondary antibody (1:2500, Cell Signaling Technology, 7074S) or anti-mouse HRP-coupled secondary antibody (1:2500, Cell Signaling, 7076S), and signals were detected with SuperSignal West Femto Maximum Sensitivity Substrate (Thermo scientific) using the iBright imager (ThermoFisher). The antibodies used are: SIK2 (1:1000, Cell Signaling, 6919), GAPDH (1:1000, Cell Signaling, 2118), αSMA (1:1000, Invitrogen, 14-9760-82), pSMAD3 (1:1000, Cell Signaling, 9520), and SMAD⅔ (1:1000, Cell Signaling, 8685).
Hematoxylin and eosin (H+E) staining was performed on some sections using standard protocols and Masson's Trichome stain for fibrosis was performed according to the manufacturer's instructions (ab150686, abcam). Formalin-fixed paraffin embedded sections were also used for in situ hybridization according to the manufacturer instructions (ACDbio). Briefly, the sections were blocked with hydrogen peroxide for 10 minutes at room temperature, followed by antigen retrieval with Pepsin (R2283, Sigma-Aldrich) in humidified chamber in 40° C. HybEZ oven. The Sik1 (526411, ACD), Sik2 (526421, ACD), or Sik3 (526431, ACD) probe was added to the sections for 2 hours in the humidified chamber at 40° C. Then, the signal was amplified (322310, ACD) and detected using Brown DAB kit (322310, ACD). […]

## CCc1nnc(-c2c(OC)cc(-c3cnc4cc(-c5cnn(C)c5)ccn34)cc2OC)o1 [SK-124, 2-[2,6-Dimethoxy-4-[7-(1-methylpyrazol-4-yl)imidazo[1,2-a]pyridin-3-yl]phenyl]-5-ethyl-1,3,4-oxadiazole]
Adenine diet, SK-124 40 mg/kg oral, 40 mg/kg
  fibrosis (trichrome staining): reduced fibrosis
Kidney lysates, immunoblot
  αSMA protein: reduced
Whole kidney RNA, RT-qPCR
  Colla1 mRNA: reduced
  Vimentin (Vim) mRNA: reduced
  αSMA mRNA: reduced
